Structures are written as SMILES. pKi: −log10 of the molar value.

T1 sequence (P41594 21-1180 isoform P41594-2 limits assumed): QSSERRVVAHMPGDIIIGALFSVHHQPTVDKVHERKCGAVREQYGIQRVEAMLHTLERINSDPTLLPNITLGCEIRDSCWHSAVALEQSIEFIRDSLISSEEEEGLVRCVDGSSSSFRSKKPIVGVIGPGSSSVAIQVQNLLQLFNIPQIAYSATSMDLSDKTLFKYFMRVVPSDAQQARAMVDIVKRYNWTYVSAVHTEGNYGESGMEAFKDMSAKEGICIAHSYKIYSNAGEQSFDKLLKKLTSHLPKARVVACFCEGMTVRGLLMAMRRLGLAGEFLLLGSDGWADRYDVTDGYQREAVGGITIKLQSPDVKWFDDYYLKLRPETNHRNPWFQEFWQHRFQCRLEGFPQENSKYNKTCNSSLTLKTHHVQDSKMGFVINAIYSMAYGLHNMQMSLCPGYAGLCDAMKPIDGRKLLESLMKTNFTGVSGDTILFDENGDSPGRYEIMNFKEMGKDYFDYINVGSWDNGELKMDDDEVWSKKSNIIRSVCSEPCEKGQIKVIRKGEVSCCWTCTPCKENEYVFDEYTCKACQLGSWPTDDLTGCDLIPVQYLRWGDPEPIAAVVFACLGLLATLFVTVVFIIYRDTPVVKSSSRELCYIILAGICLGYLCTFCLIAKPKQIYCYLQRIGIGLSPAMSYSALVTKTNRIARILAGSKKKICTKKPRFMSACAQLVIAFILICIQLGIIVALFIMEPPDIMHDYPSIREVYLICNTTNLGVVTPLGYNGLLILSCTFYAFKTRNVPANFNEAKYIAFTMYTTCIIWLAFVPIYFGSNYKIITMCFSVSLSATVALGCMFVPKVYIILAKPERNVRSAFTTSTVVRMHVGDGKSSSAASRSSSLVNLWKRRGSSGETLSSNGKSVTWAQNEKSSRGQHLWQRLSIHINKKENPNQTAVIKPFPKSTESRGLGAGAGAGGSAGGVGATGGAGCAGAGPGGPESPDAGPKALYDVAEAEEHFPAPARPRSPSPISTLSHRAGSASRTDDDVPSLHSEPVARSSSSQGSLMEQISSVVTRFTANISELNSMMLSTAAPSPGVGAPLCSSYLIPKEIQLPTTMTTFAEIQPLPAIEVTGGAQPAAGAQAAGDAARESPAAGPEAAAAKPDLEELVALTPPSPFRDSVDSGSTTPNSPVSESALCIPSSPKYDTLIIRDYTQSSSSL

This test concerns the target T1, human mGlu 5a receptor (Homo sapiens, UniProt P41594).
T1 construct: expressed in transfected cells; host or cells: EBNA cells (transient transfection); cell membrane homogenates
Put plainly: [3H]MPEP competition binding on membranes of EBNA cells transiently transfected with human mGlu 5a receptor. The conditions noted are these: competition with 2 nM [3H]MPEP, 1 h at 4° C., Ki=IC50/[1+L/Kd]. How it is done: For binding experiments, cDNA encoding human mGlu 5a receptor was transiently trans-fected into EBNA cells using a procedure described by Schlaeger and Christensen [Cyto-technology 15:1-13 (1998)]. Cell membrane homogenates were stored at −80° C. until the day of assay where upon they were thawed and resuspended and polytronized in 15 mM Tris-HCl, 120 mM NaCl, 100 mM KCl, 25 mM CaCl2, 25 mM MgCl2 binding buffer at pH 7.4 to a final assay concentration of 20 μg protein/well.
Saturation isotherms were determined by addition of twelve [^3H]MPEP concentrations (0.04-100 nM) to these membranes (in a total volume of 200 μl) for 1 h at 4° C. Competition experiments were performed with a fixed concentration of [^3H]MPEP (2 nM) and IC50 values of test compounds evaluated using 11 concentrations (0.3-10,000 nM). Incubations were performed for 1 h at 4° C.
At the end of the incubation, membranes were filtered onto unifilter (96-well white microplate with bonded GF/C filter preincubated 1 h in 0.1% PEI in wash buffer, Packard BioScience, Meriden, Conn.) with a Filtermate 96 harvester (Packard BioScience) and washed 3 times with cold 50 mM Tris-HCl, pH 7.4 buffer. Nonspecific binding was measured in the presence of 10 μM MPEP. The radioactivity on the filter was counted (3 min) on a Packard Top-count microplate scintillation counter with quenching correction after addition of 45 μl of microscint 40 (Can berra Packard S. A., Zürich, Switzerland) and shaking for 20 min. For functional assays, [Ca^2+]i measurements were performed as described previously by Porter et al. [Br. J. Pharmacol. 128:13-20 (1999)] on recombinant human mGlu 5a receptors in HEK-293 cells. The cells were dye loaded using Fluo 4-AM (obtainable by FLUKA, 0.2 μM final concentration). [Ca^2+]i measurements were performed using a fluorometric imaging plate reader (FLIPR, Molecular Devices Corporation, La Jolla, Calif., USA). Antagonist evaluation was performed following a 5 min preincubation with the test compounds followed by the addition of a submaximal addition of agonist.
The inhibition (antagonists) curves were fitted with a four parameter logistic equation giving IC50, and Hill coefficient using an iterative non linear curve fitting software (Xcel fit). For binding experiments the Ki values of the compounds tested are given. The Ki value is defined by the following formula: Ki=IC50/[1+L/Kd] in which the IC50 values are those concentrations of the compounds tested which cause 50% inhibition of the competing radioligand ([^3H]MPEP). L is the concentration of radioligand used in the binding experiment and the Kd value of the radioligand is empirically determined for each batch of membranes prepared.
In the case of `Cc1cc(C#Cc2cn(C(C)c3ccccc3)c(C)n2)ccn1` (racemic) [Example 23, rac-2-Methyl-4-[2-methyl-1-(1-phenyl-ethyl)-1H-imidazol-4-ylethynyl]-pyridine], the negative logarithm of the Ki (pKi) is 7.11. As for `Cc1nc(C#Cc2cccc(Cl)c2)cn1Cc1ccccn1` [Example 3, 2-[4-(3-Chloro-phenylethynyl)-2-methyl-imidazol-1-ylmethyl]-pyridine], the figure is 7.40. On to `Cc1cc(C#Cc2cn(Cc3cccc(C)n3)c(C)n2)ccn1` [Example 4, 4-[1-(6-Methyl-pyridin-2-ylmethyl)-2-methyl-1H-imidazol-4-ylethynyl]-2-methyl-pyridine], for which the pKi was 7.03. As for `Cc1nc(C#Cc2cccc(C#N)c2)cn1Cc1cncc(Cl)c1` [Example 18, 3-[1-(5-Chloro-pyridin-3-ylmethyl)-2-methyl-1H-imidazol-4-ylethynyl]-benzonitrile], the figure is 7.03; as for `Cc1cc(C#Cc2cn(CCc3ccccc3)c(C)n2)ccn1` [Example 29, 2-Methyl-4-(2-methyl-1-phenethyl-1H-imidazol-4-ylethynyl)-pyridine], 7.48.

The record behind these values is patent publication US7964620B2, “Imidazole derivatives” (Hoffmann-La Roche Inc., priority 2003, dated 2011).
